From the NIST ThermoML archive (doi:10.1021/je800157v)

Assay: xn = mol fraction of the nth substance listed
Details: 101 kPa, Liquid

CCC(C)O (stereo unspecified) [butan-2-ol] + c1ccccc1
mass density [kg/m3]
Details | 288.15 K | 293.15 K | 298.15 K | 303.15 K | 308.15 K | 313.15 K
x1 = 0.0511 | 879.01 | 873.67 | 868.33 | 862.98 | 857.61 | 852.24
x1 = 0.0995 | 874.6 | 869.29 | 863.96 | 858.62 | 853.25 | 847.89
x1 = 0.1508 | 870.04 | 864.77 | 859.48 | 854.17 | 848.83 | 843.48
x1 = 0.2013 | 865.76 | 860.54 | 855.3 | 850.02 | 844.72 | 839.39
x1 = 0.2482 | 861.91 | 856.74 | 851.54 | 846.3 | 841.03 | 835.75
x1 = 0.2999 | 857.8 | 852.69 | 847.54 | 842.35 | 837.13 | 831.88
x1 = 0.3486 | 854.03 | 848.96 | 843.86 | 838.72 | 833.54 | 828.34
x1 = 0.3995 | 850.21 | 845.2 | 840.14 | 835.05 | 829.92 | 824.76
x1 = 0.4509 | 846.44 | 841.48 | 836.49 | 831.44 | 826.35 | 821.21
x1 = 0.5003 | 842.93 | 838.02 | 833.08 | 828.08 | 823.04 | 817.96
x1 = 0.5498 | 839.48 | 834.64 | 829.75 | 824.82 | 819.82 | 814.8
x1 = 0.5953 | 836.41 | 831.62 | 826.79 | 821.91 | 816.96 | 811.96
x1 = 0.6487 | 832.84 | 828.13 | 823.37 | 818.56 | 813.68 | 808.75
x1 = 0.7006 | 829.46 | 824.83 | 820.15 | 815.4 | 810.59 | 805.73
x1 = 0.7493 | 826.32 | 821.78 | 817.17 | 812.5 | 807.75 | 802.95
x1 = 0.802 | 822.97 | 818.51 | 814 | 809.41 | 804.74 | 800.01
x1 = 0.8501 | 819.96 | 815.6 | 811.17 | 806.66 | 802.07 | 797.4
x1 = 0.9003 | 816.84 | 812.58 | 808.25 | 803.84 | 799.34 | 794.77
x1 = 0.9206 | 815.57 | 811.36 | 807.07 | 802.7 | 798.25 | 793.72
x1 = 0.9479 | 813.92 | 809.76 | 804.85 | 801.21 | 796.18 | 791.73
x1 = 1 | 810.64 | 806.59 | 802.47 | 798.27 | 793.97 | 789.59

ClC(Cl)Cl [trichloromethane] + CCC(C)O
mass density [kg/m3]
Details | 288.15 K | 293.15 K | 298.15 K | 303.15 K | 308.15 K | 313.15 K
x2 = 0 | 1498.08 | 1488.64 | 1479.15 | 1469.61 | 1460.03 | 1450.41
x2 = 0.0514 | 1455.49 | 1446.33 | 1437.12 | 1427.86 | 1418.55 | 1409.22
x2 = 0.1045 | 1413.17 | 1404.26 | 1395.31 | 1386.31 | 1377.26 | 1368.2
x2 = 0.1518 | 1376.62 | 1367.94 | 1359.22 | 1350.44 | 1341.17 | 1332.78
x2 = 0.1962 | 1342.92 | 1334.49 | 1326.01 | 1317.48 | 1308.89 | 1300.27
x2 = 0.2512 | 1302.06 | 1293.92 | 1285.73 | 1277.49 | 1269.19 | 1260.86
x2 = 0.2998 | 1266.64 | 1258.77 | 1250.84 | 1242.86 | 1234.82 | 1226.74
x2 = 0.3507 | 1230.33 | 1222.74 | 1215.09 | 1207.39 | 1199.64 | 1191.86
x2 = 0.3995 | 1196.11 | 1188.78 | 1181.4 | 1173.96 | 1166.47 | 1158.94
x2 = 0.4502 | 1161.11 | 1154.06 | 1146.95 | 1139.78 | 1132.56 | 1125.28
x2 = 0.4978 | 1128.73 | 1121.94 | 1115.08 | 1108.17 | 1101.2 | 1094.2
x2 = 0.546 | 1096.47 | 1089.93 | 1083.34 | 1076.68 | 1069.96 | 1063.21
x2 = 0.6008 | 1060.39 | 1054.14 | 1047.83 | 1041.47 | 1035.03 | 1028.55
x2 = 0.6498 | 1028.63 | 1022.64 | 1016.59 | 1010.48 | 1004.3 | 998.07
x2 = 0.7008 | 995.87 | 990.15 | 984.37 | 978.52 | 972.61 | 966.65
x2 = 0.7446 | 968.17 | 962.68 | 957.13 | 951.51 | 945.82 | 940.07
x2 = 0.7984 | 934.4 | 929.2 | 923.93 | 918.6 | 913.19 | 907.74
x2 = 0.8507 | 901.92 | 897 | 892.02 | 886.97 | 881.84 | 876.65
x2 = 0.9 | 871.62 | 866.99 | 862.29 | 857.51 | 852.65 | 847.72
x2 = 0.9486 | 841.91 | 837.56 | 833.14 | 828.64 | 824.05 | 819.39
